Measured values reported in BindingDB's records for doi:10.1021/jm00397a017 (Beijing Medical University, 1988).
pKi: −log10 of the molar value.

Biological target: T1, Dihydrofolate reductase (Escherichia coli (strain K12), UniProt P0ABQ4)
T1 sequence (P0ABQ4 whole entry): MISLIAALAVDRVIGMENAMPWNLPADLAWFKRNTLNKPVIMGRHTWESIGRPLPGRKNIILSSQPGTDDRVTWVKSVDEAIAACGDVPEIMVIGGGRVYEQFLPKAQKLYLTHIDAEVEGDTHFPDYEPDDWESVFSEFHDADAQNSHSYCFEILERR
Assay: ChEBML_54731
Text: Apparent inhibitory (log 1/Ki) activity against Escherichia coli dihydrofolate reductase

pKi | Structure (SMILES)
8.77 | Nc1ncc(Cc2cc(OCc3ccccc3)cc(OCc3ccccc3)c2)c(N)n1
8.74 | COCCOc1cc(Cc2cnc(N)nc2N)ccc1OC
9.01 | CCCCOc1ccc(Cc2cnc(N)nc2N)cc1OC
8.96 | CCCOc1cc(Cc2cnc(N)nc2N)cc(Br)c1OC
8.96 | CCCCOc1cc(Cc2cnc(N)nc2N)cc(Br)c1OC
8.15 | CS(=O)(=O)Oc1ccc(Cc2cnc(N)nc2N)cc1
9.25 | COCCOc1ccc(Cc2cnc(N)nc2N)cc1OC
9.05 | COc1cc(Cc2cnc(N)nc2N)ccc1O
8.80 | CCCOc1cc(Cc2cnc(N)nc2N)cc(OCCC)c1
8.05 | Cc1cc(C)cc(Cc2cnc(N)nc2N)c1
9.11 | CCOc1cc(Cc2cnc(N)nc2N)cc(OCC)c1
8.96 | COc1ccc(Cc2cnc(N)nc2N)cc1OS(C)(=O)=O
8.49 | CCCOc1cc(Cc2cnc(N)nc2N)cc(OCC)c1
10.01 | COc1ccc(Cc2cnc(N)nc2N)cc1OCc1ccccc1 [5-(3-Benzyloxy-4-methoxy-benzyl)-pyrimidine-2,4-diamine]
9.43 | COc1cc(Cc2cnc(N)nc2N)ccc1OCc1ccccc1 [5-(4-(benzyloxy)-3-methoxybenzyl)pyrimidine-2,4-diamine]
8.70 | Nc1ncc(Cc2ccc(OCc3ccccc3)cc2)c(N)n1 [5-(4-(benzyloxy)benzyl)pyrimidine-2,4-diamine]
